In the supplement of paper PMC11061612:

What was measured:
Test in all cases: combination Emax (second highest fraction inhibited in the dose matrix, 72 h); higher = more inhibition; extreme values may be limits of the assay
T47D (Breast Carcinoma) = test system: T47D (Breast Carcinoma)
Method in brief: (§1)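 Bliss excess equals the observed combination effect minus the expected value EA + EB − EA·EB, where EA and EB are the effects of each agent alone. Combination Emax is the second-highest inhibition within the matrix. Inhibition was scaled from CellTiter-Glo 2.0 luminescence, with 0 set by vehicle wells and 1 by blank wells, after 72 hours of two-drug dosing of cells plated in 1536-well plates.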

[1] = test system: DBTRG-05MG (Glioblastoma)
Method in brief: as §1

[2] = test system: P32-ISH (Burkitt's Lymphoma)
Method in brief: as §1

[3] = test system: NCI-H1876 (Small Cell Lung Carcinoma)
Method in brief: as §1

[4] = test system: SUP-M2 (T-Cell Non-Hodgkin's Lymphoma)
Method in brief: as §1

SK-N-SH (Neuroblastoma) = test system: SK-N-SH (Neuroblastoma)
Method in brief: as §1

[5] = test system: P30-OHK (B-Lymphoblastic Leukemia)
Method in brief: as §1

[6] = test system: NAMALWA (Burkitt's Lymphoma)
Method in brief: as §1

[7] = test system: SNU-407 (Colorectal Carcinoma)
Method in brief: as §1

[8] = test system: T84 (Colorectal Carcinoma)
Method in brief: as §1

[9] = test system: PL4 (Pancreatic Carcinoma)
Method in brief: as §1

[10] = test system: MOLP-8 (Plasma Cell Myeloma)
Method in brief: as §1

[11] = test system: MOLT-13 (T-Lymphoblastic Leukemia)
Method in brief: as §1

[12] = test system: PA-TU-8988T (Pancreatic Carcinoma)
Method in brief: as §1

[13] = test system: MONO-MAC-6 (Acute Myeloid Leukemia)
Method in brief: as §1

[14] = test system: COR-L88 (Small Cell Lung Carcinoma)
Method in brief: as §1

GAK (Melanoma) = test system: GAK (Melanoma)
Method in brief: as §1

KALS-1 (Glioblastoma) = test system: KALS-1 (Glioblastoma)
Method in brief: as §1

[15] = test system: OAW-28 (Ovarian Carcinoma)
Method in brief: as §1

[16] = test system: LCLC-103H (Non-Small Cell Lung Carcinoma)
Method in brief: as §1

| Compound | combination Emax (T47D (Breast Carcinoma)) | combination Emax [1] | combination Emax [2] | combination Emax [3] | combination Emax [4] | combination Emax (SK-N-SH (Neuroblastoma)) | combination Emax [5] | combination Emax [6] | combination Emax [7] | combination Emax [8] | combination Emax [9] | combination Emax [10] | combination Emax [11] | combination Emax [12] | combination Emax [13] | combination Emax [14] | combination Emax (GAK (Melanoma)) | combination Emax (KALS-1 (Glioblastoma)) | combination Emax [15] | combination Emax [16] |
| --- | --- | --- | --- | --- | --- | --- | --- | --- | --- | --- | --- | --- | --- | --- | --- | --- | --- | --- | --- | --- |
| NC1(C(=O)N[C@@H](CCO)c2ccc(Cl)cc2)CCN(c2ncnc3[nH]ccc23)CC1 [Capivasertib] + C[C@@H]1COCCN1C2=NC(=NC(=C2)C3(CC3)[S@](=N)(=O)C)C4=C5C=CNC5=NC=C4 [AZD6738] (first compound max 10 µM, 7x7, partner max 10 µM) | 0.481 | 0.372 | 0.927 | 0.934 | 1 | 0.872 | 0.936 | 0.937 | 0.82 | 0.68 | 0.777 | 0.85 | 0.957 | 0.625 | 0.917 | 0.435 | 0.509 | 0.784 | 0.515 | 0.524 |
| CC1(C)CCC(CN2CCN(c3ccc(C(=O)NS(=O)(=O)c4ccc(NCC5CCOCC5)c([N+](=O)[O-])c4)c(Oc4cnc5[nH]ccc5c4)c3)CC2)=C(c2ccc(Cl)cc2)C1 [Venetoclax] + Cc1cc2ncnn2cc1Nc1ncc2c(n1)n(C1CCOCC1)c(=O)n2C [AZD7648] (first compound max 1 µM, 7x7, partner max 10 µM) | 0.32 | 0.209 | 0.0629 | 0.274 | 0.283 | 0.543 | 0.569 | 0.459 | 0.373 | 0.0827 | 0.357 | 0.273 | 0.785 | 0.238 | 0.436 | 0.515 | 0.204 | 0.693 | 0.152 | 0.282 |
| CN(C)CCCOc1ccc(-c2ccc3ncc4c(c3c2)n(C2CCOCC2)c(=O)n4C)cn1 [AZD0156] + C=CCn1c(=O)c2cnc(Nc3ccc(N4CCN(C)CC4)cc3)nc2n1-c1cccc(C(C)(C)O)n1 [AZD1775] (first compound max 1 µM, partner max 1 µM) | 0.343 | 0.175 | 0.995 | 0.982 | 1 | 0.799 | 0.678 | 0.974 | 0.358 | 0.556 | 0.445 | 0.721 | 0.977 | 0.718 | 0.886 | 0.622 | 0.745 | 0.855 | 0.27 | 0.519 |
| Cc1c2c(nn1C)CSCc1cc(n(C)n1)CSc1cc(c3ccccc3c1)OCCCc1c(C(=O)O)n(C)c3c-2c(Cl)ccc13 [AZD5991] + CC1(C)CCC(CN2CCN(c3ccc(C(=O)NS(=O)(=O)c4ccc(NCC5CCOCC5)c([N+](=O)[O-])c4)c(Oc4cnc5[nH]ccc5c4)c3)CC2)=C(c2ccc(Cl)cc2)C1 [Venetoclax] (first compound max 1 µM, 7x7, partner max 1 µM) | 0.434 | 0.158 | 1 | 0.881 | 0.994 | 0.921 | 0.996 | 0.994 | 0.717 | 0.142 | 0.234 | 1 | 1 | 0.151 | 1 | 0.817 | 0.523 | 0.305 | 0.687 | 0.145 |
| CC1(C)CCC(CN2CCN(c3ccc(C(=O)NS(=O)(=O)c4ccc(NCC5CCOCC5)c([N+](=O)[O-])c4)c(Oc4cnc5[nH]ccc5c4)c3)CC2)=C(c2ccc(Cl)cc2)C1 [Venetoclax] + Cn1cnc2c(F)c(Nc3ccc(Br)cc3Cl)c(C(=O)NOCCO)cc21 [Selumetinib] (first compound max 1 µM, 7x7, partner max 3 µM) | 0.0758 | 0.285 | 0.239 | 0.205 | 0.366 | 0.553 | 0.303 | 0.286 | 0.504 | 0.16 | 0.443 | 0.186 | 0.804 | 0.272 | 0.357 | 0.543 | 0.731 | 0.578 | 0.284 | 0.115 |
| CC(=O)c1c(C)c2cnc(Nc3ccc(N4CCNCC4)cn3)nc2n(C2CCCC2)c1=O [Palbociclib] + CC1(C)CCC(CN2CCN(c3ccc(C(=O)NS(=O)(=O)c4ccc(NCC5CCOCC5)c([N+](=O)[O-])c4)c(Oc4cnc5[nH]ccc5c4)c3)CC2)=C(c2ccc(Cl)cc2)C1 [Venetoclax] (first compound max 10 µM, 7x7, partner max 1 µM) | 0.237 | 0.114 | 0.66 | 0.224 | 0.738 | 0.465 | 0.866 | 0.537 | 0.398 | 0.079 | 0.184 | 0.538 | 0.709 | 0.141 | 0.823 | 0.331 | 0.205 | 0.146 | 0.173 | 0.251 |
| CN(CCO)CC[C@H](CSc1ccccc1)Nc1ccc(S(=O)(=O)NC(=O)c2ccc(N3CCC([C@@H](O)c4ccccc4-c4ccc(Cl)cc4)CC3)cc2)cc1S(=O)(=O)C(F)(F)F [AZD4320] + C1CN(CCC1(C(=O)N[C@@H](CCO)C2=CC=C(C=C2)Cl)N)C3=NC=NC4=C3C=CN4 [Capivasertib] (first compound max 1 µM, 7x7, partner max 3 µM) | 0.364 | 0.619 | 0.318 | 0.955 | 0.365 | 0.707 | 0.992 | – | 0.362 | 0.136 | 0.497 | 0.254 | 0.913 | 0.22 | 0.597 | 0.971 | 0.135 | 0.485 | 0.899 | 0.238 |
| COc1nnc2ccc(N3CCC(c4ccc(OCCN5CCN(C)C(=O)[C@H]5C)cc4)CC3)nn12 [AZD5153] + CN(CC[C@H](CSC1=CC=CC=C1)NC2=C(C=C(C=C2)S(=O)(=O)NC(=O)C3=CC=C(C=C3)N4CCC(CC4)[C@H](C5=CC=CC=C5C6=CC=C(C=C6)Cl)O)S(=O)(=O)C(F)(F)F)CCO [AZD4320] (first compound max 1 µM, 7x7, partner max 1 µM) | 0.472 | 0.399 | 0.68 | 0.977 | 0.986 | – | 1 | – | 0.902 | – | 0.809 | 0.98 | 1 | 0.695 | – | – | – | – | 1 | – |
| CCc1c2c(nc3ccc(O)cc13)-c1cc3c(c(=O)n1C2)COC(=O)[C@]3(O)CC [SN-38] + O=C(c1cc(Cc2n[nH]c(=O)c3ccccc23)ccc1F)N1CCN(C(=O)C2CC2)CC1 [Olaparib] (first compound max 0.3 µM, 7x7, partner max 10 µM) | 0.625 | 0.407 | 1 | – | 1 | 0.959 | 0.99 | 0.986 | – | 0.528 | 0.903 | 0.783 | 1 | 0.604 | 1 | 0.535 | 0.472 | 0.616 | – | 0.54 |
| CC(=O)c1c(C)c2cnc(Nc3ccc(N4CCNCC4)cn3)nc2n(C2CCCC2)c1=O [Palbociclib] + CN(CC[C@H](CSC1=CC=CC=C1)NC2=C(C=C(C=C2)S(=O)(=O)NC(=O)C3=CC=C(C=C3)N4CCC(CC4)[C@H](C5=CC=CC=C5C6=CC=C(C=C6)Cl)O)S(=O)(=O)C(F)(F)F)CCO [AZD4320] (first compound max 10 µM, 7x7, partner max 1 µM) | 0.344 | 0.529 | 0.735 | 0.926 | 0.897 | – | 0.967 | – | 0.483 | – | 0.483 | 0.542 | 0.975 | 0.33 | – | – | – | – | 0.889 | – |
| C[C@@H](c1ccc2nccn2c1)n1nnc2ncc(-c3cnn(C)c3)nc21 [Savolitinib] + CN(CC[C@H](CSC1=CC=CC=C1)NC2=C(C=C(C=C2)S(=O)(=O)NC(=O)C3=CC=C(C=C3)N4CCC(CC4)[C@H](C5=CC=CC=C5C6=CC=C(C=C6)Cl)O)S(=O)(=O)C(F)(F)F)CCO [AZD4320] (first compound max 1 µM, 7x7, partner max 1 µM) | 0.252 | 0.439 | 0.165 | 0.797 | 0.287 | – | 0.948 | – | 0.722 | – | 0.472 | 0.216 | 0.912 | 0.191 | – | – | – | – | 0.903 | – |
| C[C@@H]1COCCN1c1cc(C2([S@](C)(=N)=O)CC2)nc(-c2ccnc3[nH]ccc23)n1 [AZD6738] + O=C(c1cc(Cc2n[nH]c(=O)c3ccccc23)ccc1F)N1CCN(C(=O)C2CC2)CC1 [Olaparib] (first compound max 10 µM, 7x7, partner max 10 µM) | 0.301 | 0.239 | 0.91 | 0.945 | 1 | 0.929 | – | 0.938 | 0.75 | 0.672 | 0.672 | 0.794 | 0.999 | 0.448 | 0.948 | 0.342 | 0.564 | 0.793 | 0.396 | 0.504 |
